The text below walks through data of US5128420A, “Method of making hydroxamic acid polymers from primary amide polymers” (Massachusetts Institute of Technology, priority 1988, dated 1992).

SMILES strings stand for the structures.

In the assay the test system is urease forming bacteria, Proteus. As to the kind of experiment: Urease inhibition activity (ammonia production by urease forming bacteria in artificial urine). Format: cell-based. On the procedure: PHA was tested for urease inhibition activity using the procedure of Griffith et al in Investigative Urology 13(5),346-350(1976). Briefly, one square centimeter of agar slab containing a layer of urease forming bacteria, Proteus, was dissolved in 25 ml of artificial urine made of 25 g urea dissolved in one liter water. 30 mg polymer was added per ml urine and the mixture incubated overnight at 37° C. The production of ammonia, indicative of urease activity, was measured using an amino acid analyzer.
*% activity was estimated relative to AHA from the ratio between the
decrease in ammonia number of the polymer and AHA.

For `CC(=O)NO` [AHA, acetyl hydroxamic acid], the Ammonia (30 mg per ml artificial urine, overnight at 37° C., amino acid analyzer) was 1165-1331. For the same compound, where the note is “estimated relative to AHA from the ratio between the decrease in ammonia number of the polymer and AHA”, the “% Activity” value is reported as 100%.
